Measured values published in patent publication US9481671B2, “Glucosylceramide synthase inhibition for the treatment of collapsing glomerulopathy and other glomerular disease” (Genzyme Corporation, priority 2008, dated 2016).

Tested on: GM3
Assay: GM3 Elisa Assay (B16-FO cells)
Type: cell-based
Conditions: 48 h, Table 3, 2 days with compound, read-out: IC50_uM_Mean
Method: B16-FO cells from ATCC (American Tissue Culture Collection) were grown in DMEM media (ATCC) with 10% Fetal Bovine Serum (Hyclone) and Pen/Step/Glutamine (Biowhittaker). 4000 cells per well were plated on collagen coated plates (BD) and allowed to attach for 6 hours in an incubator (37 degrees, 5% CO2). After 6 hours the compounds and controls were added to the wells, the plates mixed and returned to the incubator for 2 days. Day of assay the cells were fixed for 20 minutes with 1% formaldehyde and then washed with Tris Buffered Saline (TBS) 3 times, 150 μl of TBS was left in the wells and 50 μl of goat serum (Invitrogen) was added, the plates mixed and incubated for 1 hour at room temperature. The plates were flicked and the cells incubated with the monoclonal Antibody to GM3 (NeuAc) (Cosmo) for 45 minutes as room temperature. The plates were then washed 3 times with TBS, leaving 150 μl of TBS in the wells and Peroxidase AffinPure F (ab′) 2 frag Gt Anti-mouse IgM, μ Chain Specific (Jackson Immno Research) was added in 50 μl, the plates mixed and incubated for 45 minutes at room temperature. The plates were washed 3 times with TBS, flicked and blotted and 100 μl of Quantablu (Pierce) was added to the wells and incubated for 1 hour then read on a Fluorometer at Ex 325 and Em 420. The data was then analyzed using standard programs.

Compound `O=C(CCCc1nc(C2CC2)no1)N[C@H](CN1CCCC1)[C@H](O)c1ccc2c(c1)OCCO2` [Compound 648] has an IC50 of 1000 to 3000 nM.

`Cc1noc(CCCCC(=O)N[C@H](CN2CCCC2)[C@H](O)c2ccc3c(c2)OCCO3)n1` [Compound 649] was tested, and the IC50 was 3000 to 10000 nM.
